Laboratory results: patent US20100227827A1, “METHOD OF INCREASING TRYPTOPHAN AND NICOTINAMIDE LEVELS IN VIVO” (priority 2006, published 2010)

Legend:
[1] = system: serum protein thiols; assay: Serum protein thiols as in vivo anti-oxidant indicator; set-up: species or system human; conditions: for Increase in serum protein thiols (ratio): after to before (baseline)
Source text: The following detailed description was designed to standardize the estimation of the in vivo level of serum protein thiols that have been used previously to estimate DNA repair capacity. When a blood sample is collected and the serum isolated, then the level of serum protein thiols is an estimate of the concentration between thiols and disulfides existing in protein structures that are in turn equilibrated to the existing oxidant environment in vivo. Thus, serum protein thiol analyses are an in vivo estimate of the antioxidant status of an individual that is in turn regulated by DNA repair.
A stock solution of the colorimetric agent 5,5′-dithio-bis-(2-nitrobenzoic acid (DTNB), was prepared using: 9.5 mg/ml solid DTNB, 0.1 M K2HPO4, and 17.5 mM EDTA. pH was adjusted to 7.5 and then diluted to desired volume. Working DTNB solution was prepared by diluting DTNB stock solution 1:50 with saline. Solutions of L-cysteine were prepared and a standard curve was constructed desirably be in the 0-100 μM range. Stock solutions were diluted as required and absorbance was measured using 96-well flat-bottom microtiter plate. 50 μL-cysteine solution with 200 μl working DTNB solution was placed per well. […]
A DTNB blank (50 μl saline+200 μl DTNB) was made. Absorbance values were made at 412 nm with a microtiter plate scanner spectrophotometer. The average of every concentration was calculated and DTNB blank was subtracted from every value. Using a plot of concentration (x-axis) vs. absorbance (y-axis) by comparison with standard cysteine solutions the cysteine concentration was determined.
A saturated ammonium sulfate solution was prepared. […] Absorbance in microtiter plate scanner set at 412 nm was measured making sure that bubbles in the well are avoided.
The average was calculated for the DTNB blank and the saline blank. […]
Then the corrected serum value was subtracted from the corrected sample value. This value was the final serum thiol value expressed as absorbance at […]. […]
Altogether this was a 20 fold dilution (4×5=20). […] Thiols were hereby measured in nmoles/0.72 ml.

[2] = Molar ratio from neutralization of free organic acid with hydroxides; assay type: physicochemical; conditions: salt or chelate; listed as Quinic acid ammonium salt
Experimental: Determination of salts and chelates of some naturally occurring polyhydroxylated and polycarboxylated organic acids are provided in Table 1. Experimental molar ratios were calculated from neutralization to pH=7.5 of free protonated organic acid (H^+) with sodium, potassium or ammonium hydroxides.

O=C(O)[C@]1(O)C[C@@H](O)[C@@H](O)[C@H](O)C1 [Aqua Bimini™, quinic acid ammonium chelate]
Increase in serum protein thiols (ratio) ([1]; 3000 mg/day for 36 days): 1.26 | Increase in serum protein thiols (ratio) ([1]; HL 1500 mg/day for 36 days): 1.22 | reduced thiols (—SH) in serum proteins ([1]; supplementation 1500 or 3000 mg/day, treatment and follow-up versus baseline): significant increase | Determination of structure existing in water [2]: chelate
